The numbers were not newly measured in US5627200A, “β3 -Adrenoceptor agonists and antagonists for the treatment of intestinal motility disorders, depression, prostate disease and dyslipidemia” (Pfizer Inc, priority 1994, dated 1997), which cites them from elsewhere.

The subject of series [1] is genetic animal models of obesity and diabetes.
Series [2] deals with rodent models of depression. The settings on record: reported in Europ. J. Pharm., 219, 193 (1992).

Consider `COC(=O)COc1ccc(CC(C)NCC(O)c2cccc(Cl)c2)cc1` (stereo not drawn) [N-[2-(4-carbomethoxymethoxyphenyl)-1-methylethyl]-2-hydroxy-2-(3-chlorophenyl)ethanamine], for which, in series [1], the plasma fatty acids entry is on record as “reduces” and the plasma triglycerides entry was “reduces”.

With `CCOC(=O)COc1ccc2c(c1)C[C@@H](NC[C@H](O)c1cccc(Cl)c1)CC2.Cl` [N-[(2S)-7-carbethoxymethoxy-1,2,3,4-tetrahydronaphth-2-yl]-(2R)-2-hydroxy-2-(3-chlorophenyl)-ethanamine hydrochloride], in series [2], the “activity in rodent models of depression” value is recorded as “demonstrate activity in rodent models of depression”.
